pIC50: −log10 of the molar value.

Test [1] concerns metrazol induced convulsions. Description: animal or person. It counts as in vivo, mice. As to conditions: for % Protected: 10 mg/kg. How it is done:
Experiments were also performed to determine the physiological relevance of neuroactive steroid and GABA receptor interactions by assessing the ability of the compounds of and used in the invention to prevent metrazol induced convulsions in mice. […] The time to onset of myoclonus (presence of forelimb clonic activity) induced by metrazol was determined by observing each mouse for a period of 30 minutes. […]
The anticonvulsant tests are similar to that described above. […] The number of animals with tonic and/or clonic convulsions was recorded. In the maximal electroshock test, 50 mA of current at 60 Hz was delivered through corneal electrodes for 200 msec to induce tonic seizure. The ability of compounds to abolish the tonic component was defined as the endpoint. General CNS depression potential was determined by a rotorod test 10 minutes after the injection of compounds where the number of mice staying on a rotating (6 rpm) rod for 1 minute in one of the three trials was determined. […]

A further test concerns the target GR complex. Description: modulation of [35S]TBPS binding in rat cerebral cortex P2 homogenate. To be noted: for pIC50: concentration of compounds to inhibit 50% of control [35S]TBPS binding, 2 nM [35S]TBPS, 25°C, 90 minutes, no unit printed; for IMAX: maximum inhibition of [35S]TBPS binding, I* = Inactive. Details: species or system Sprague-Dawley rats; IMAX: unit not given here. Here is the method:
We performed several experiments to determine the nature of the modulation of [^35S]TBPS as affected by the compounds of the invention.
These procedures were performed as follows:
Brains from male Sprague-Dawley rats were removed immediately following sacrifice and the cerebral cortices dissected over ice. […] Briefly, the cortices were gently homogenized in 0.32 M sucrose followed by centrifugation at 1000 x g for 10 minutes. The supernatant was collected and centrifuged at 9000 x g for 20 minutes. The resultant P2 pellet was suspended as a 10% (original wet weight/volume) suspension in 50 mM Na/K phosphate buffer (pH 7.4) 200 mM NaCI to form the homogenate.
One hundred microliter […] aliquots of the P2 homogenate (0.5 milligrams (mg) protein) were incubated with 2 nanomolar (nM) [^35S]TBPS (70-110 curies/millimole;, New England Nuclear, Boston, MA) in the presence or absence of the naturally occurring steroids or their synthetic derivatives to be tested. The tested compounds were dissolved in dimethylsulfoxide (Baker Chem. Co., Phillipsbury, NJ) and added to the incubation mixture in 5 µL aliquots. The incubation mixture was brought to a final volume of 1 mL with buffer. Nonspecific binding was defined as binding in the presence of […]. The effect and specificity of GABA (Sigma Chem. Co., St. Louis, MO) was evaluated by performing all assays in the presence of GABA plus (+)bicuculline (Sigma Chem. Co.). Incubations maintained at 25°C for 90 minutes (steady state conditions) were terminated by rapid filtration through glass fiber filters (No. 32, Schleicher and Schuell, Keene, NH). Filter-bound radioactivity was quantitated by liquid scintillation spectrophotometry.
Various compounds were screened to determine their potential as modulators of [^35S]TBPS binding in vitro. These assays were performed in accordance with the above discussed procedures. […] It is an indication of a compound's in vitro potency. Maximum inhibition is an indication of a compound's in vitro efficacy.

Where [2] appears, read: IP, 50% hpbcd, 10 minutes prior to metrazol (85 mg/kg).
Setting [3] is: 60 mg/kg, 1 hr, IP, anti-metrazol.

Turning to `CC(C)(O)[C@H]1CC[C@H]2[C@@H]3CC[C@@H]4C[C@](C)(O)CC[C@]4(C)[C@H]3CC[C@]12C` [3α,20-Dihydroxy-3β,20-dimethyl-5β-pregnane], in test [1] (IP, micro soln.), the “% Protected” value stood at 22.2%.
The term pIC50 denotes the negative decadic logarithm of the IC50, by convention in mol/L. On GR complex, `C#CC1(O)CCC2(C)C(CCC3C2CCC2(C)C(C(C)O)CCC32)C1` (stereo not drawn) [3α,20α-dihydroxy-3β-ethynyl-5α-pregnane, 3β-Ethynyl-3α,20α-dihydroxy-5α-pregnane] gave a negative logarithm of the IC50 (pIC50) of 6.69 and an IMAX of 56.
Taken in the same sequence, the figures for `C#CC1(O)CCC2(C)C(CCC3C2CCC2(C)C(C(C)O)CCC32)C1` (stereo not drawn) [3α,20α-dihydroxy-3β-ethynyl-5β-pregnane, 3β-Ethynyl-3α,20α-dihydroxy-5β-pregnane] were 6.25 and 98.
On GR complex, `C#C[C@@]1(O)CC[C@@]2(C)[C@@H](CC[C@@H]3[C@@H]2CC[C@]2(C)[C@@H]([C@@H](C)O)CC[C@@H]32)C1` [3α,20β-dihydroxy-3β-ethynyl-5α-pregnane, 3β-ethynyl-3α,20β-dihydroxy- 5α-pregnane] gave a pIC50 of 6.11 and an IMAX of 107. The “% Protected” value in test [1] (setting [2]) stood at 37.5%.
Taken in the same sequence, the figures for `C#C[C@@]1(O)CC[C@@]2(C)[C@H](CC[C@@H]3[C@@H]2CC[C@]2(C)[C@@H]([C@@H](C)O)CC[C@@H]32)C1` [3α,20β-dihydroxy-3β-ethynyl-5β-pregnane, 3β-Ethynyl-3α,20β-dihydroxy-5β-pregnane] were 6.16, 77 and 25%.
At GR complex, `CC(O)C1CCC2C3CCC4CC(C)(O)CCC4(C)C3CCC12C` (stereo not drawn) [3α,20β-dihydroxy-3β-methyl-5α-pregnane] gave a pIC50 of 6.03 and an IMAX of 99.
In the same order, the values of `CC(O)C1CCC2C3CCC4CC(C)(O)CCC4(C)C3CCC12C` (stereo not drawn) [3α,20β-dihydroxy-3β-methyl-5β-pregnane] are 6.34 and 105.
Taken in the same sequence, the figures for `C=C[C@@]1(O)CC[C@@]2(C)[C@@H](CC[C@@H]3[C@@H]2CC[C@]2(C)[C@@H](C(=O)COC(=O)CCC(=O)O)CC[C@@H]32)C1` [3α,21-dihydroxy-3β-ethenyl-5α-pregnan-20-one 21-hemisuccinate] were 6.42 and 89.
In the same order, the values of `C=C[C@@]1(O)CC[C@@]2(C)[C@@H](CC[C@@H]3[C@@H]2CC[C@]2(C)[C@@H](C(=O)CO)CC[C@@H]32)C1` [3α,21-dihydroxy-3β-ethenyl-5α-pregnan-20-one] are 6.54 and 101.
Take `COC(=O)CCC(=O)OCC(=O)C1CCC2C3CCC4CC(O)(C(F)(F)F)CCC4(C)C3CCC12C` (stereo not drawn) [3α,21-dihydroxy-3β-trifluoromethyl-5β-pregnan-20-one methyl 21-succinate]: at GR complex, the pIC50 was 6.32 and the IMAX stood at 86.
On GR complex, `C[C@]12CC[C@@H](O)C[C@@H]1CC[C@@H]1[C@@H]2CC[C@]2(C)[C@@H](C(=O)COC(=O)CCC(=O)O)CC[C@@H]12` [3α,21-dihydroxy-5α-pregnan-20-one 21-hemisuccinate] had a pIC50 of 6.93 and an IMAX of 91.
Take `CCC(=O)[C@H]1CC[C@H]2[C@@H]3CC[C@H]4C[C@](C)(O)CC[C@]4(C)[C@H]3CC[C@]12C` [3α-hydroxy-3β,21-dimethyl-5α-pregnan-20-one]: at GR complex, the pIC50 is 7.05 and the IMAX is recorded as 85.
Taken in the same sequence, the figures for `CC(=O)[C@H]1CC[C@H]2[C@@H]3CC[C@H]4C[C@](C)(O)CC[C@]4(C)[C@H]3C=C[C@]12C` [3α-hydroxy-3β-methyl-5α-pregn-11-en-20-one] were 6.62 and 76.
Taken in the same sequence, the figures for `CC(=O)[C@H]1CC[C@H]2[C@@H]3CC[C@H]4C[C@](C)(O)CC[C@]4(C)[C@H]3C(=O)C[C@]12C` [3α-hydroxy-3β-methyl-5α-pregnane-11,20-dione] were 6.02 and 100.
For `CC(=O)[C@H]1CC[C@H]2[C@@H]3CC[C@@H]4C[C@](C)(O)CC[C@@H]4[C@H]3CC[C@]12C` [3α-hydroxy-3β-methyl-5β-19-nor-pregnan-20-one], on GR complex, the pIC50 is 7.59 and the IMAX was 94.
In the same order, the values of `CC(=O)C1=CC[C@H]2[C@@H]3CC[C@@H]4C[C@](C)(O)CC[C@]4(C)[C@H]3CC[C@]12C` [3α-hydroxy-3β-methyl-5β-pregn-16-en-20-one] are 6.02 and 100.
On to `CCC(=O)[C@H]1CC[C@H]2[C@@H]3CC[C@@H]4C[C@H](O)CC[C@]4(C)[C@H]3CC[C@]12C` [3α-hydroxy-21-methyl-5β-pregnan-20-one], for which, on GR complex, the pIC50 was 7.11 and the IMAX was 100.
Turning to `CCCCC#C[C@@]1(O)CC[C@@]2(C)[C@H](CC[C@@H]3[C@@H]2CC[C@]2(C)[C@@H](C(C)=O)CC[C@@H]32)C1` [3β-(1-hexynyl)-3α-hydroxy-5β-pregnan-20-one], the “% Protected” value in test [1] (setting [2]) is 37.5%.
For the compound `CC(=O)C1CCC2C3CCC4CC(O)(C#CCCCCl)CCC4(C)C3CCC12C` (stereo not drawn) [3β-(5'-chloropentyn-1'-yl)-3α-hydroxy-5β-pregnan-20-one], at GR complex, the pIC50 is 7.36 and the IMAX turned out to be 98.
Turning to `CC(=O)C1CCC2C3CCC4CC(OC(=O)c5ccc(Cl)cc5)CCC4(C)C3CCC12C` (stereo not shown) [4-Chlorophenyl], the “% Protection” value in test [1] (setting [3]) stood at 50%.
The same measure, in the same setting: for `COc1ccc(C(=O)OC2CCC3(C)C(CCC4C3CCC3(C)C(C(C)=O)CCC43)C2)cc1` (stereo not shown) [4-Methoxyphenyl] the value was 17%.
Regarding `CC12CCC(O)(C(F)(F)F)CC1CCC1C2CCC2(C)C(C(=O)CBr)CCC12` (stereo not drawn) [21-bromo-3α-hydroxy-3β-trifluoromethyl-5β-pregnan-20-one], at GR complex, the pIC50 is 5.82 and the IMAX was determined as 102.
For the compound `CCCCC(=O)OC1CCC2(C)C(CCC3C2CCC2(C)C(C(C)=O)CCC32)C1` (stereo not shown) [Butyl], the “% Protection” value in test [1] (mouse, in vivo) is 33%.
Take `CCC(=O)OC1CCC2(C)C(CCC3C2CCC2(C)C(C(C)=O)CCC32)C1` (stereo not shown) [Ethyl]: the “% Protection” value in test [1] (setting [3]) was 75%.
Still for that read-out and setting: the figure for `CC(=O)C1CCC2C3CCC4CC(OC(=O)C(C)C)CCC4(C)C3CCC12C` (stereo not shown) [Example 2-Propyl] is 75%.
On to `CC(=O)C1CCC2C3CCC4CC(OC(=O)c5cccnc5)CCC4(C)C3CCC12C` (stereo not shown) [Example 3-Pyridyl], for which, in test [1] (60 mg/kg, IP, 20 hour, anti-metrazol), the “% Protection” value is given as 50 (20 hour) %.
`CCCC(CCC)C(=O)OC1CCC2(C)C(CCC3C2CCC2(C)C(C(C)=O)CCC32)C1` (stereo not shown) [Example 4-Heptyl]: in test [1] (60 mg/kg, IP, 4 hour, anti-metrazol), the “% Protection” value is 16 (4 hour) %.
As for `CC(=O)OC1CCC2(C)C(CCC3C2CCC2(C)C(C(C)=O)CCC32)C1` (stereo not shown) [Methyl], in test [1] (setting [3]), the “% Protection” value amounted to 25%.
On to `CC(=NCCO)[C@H]1CC[C@H]2[C@@H]3CC[C@H]4C[C@](C)(O)CC[C@]4(C)[C@H]3CC[C@]12C` [N-(3α-hydroxy-3β-methyl-5α-pregnan-20-ylidine)ethanolamine], for which, at GR complex, the pIC50 is 7.00 and the IMAX amounted to 93.
As for `CC(=O)C1CCC2C3CCC4CC(OC(=O)c5ccccc5)CCC4(C)C3CCC12C` (stereo not shown) [Phenyl], the “% Protection” value in test [1] (setting [3]) is given as 33%.
On the same count and under the same terms, the figure for `CCCC(=O)O[C@@H]1CC[C@@]2(C)[C@@H](CC[C@@H]3[C@@H]2CC[C@]2(C)[C@@H](C(C)=O)CC[C@@H]32)C1` [Propyl] is 75%.
`CC(C)CCC[C@@H](C)[C@H]1CC[C@H]2[C@@H]3CC=C4C[C@@H](O)CC[C@]4(C)[C@H]3CC[C@]12C` [cholesterol, reference compound]: at GR complex, the pIC50 is under 6.00 and the IMAX result is “I*”.
In the same order, the values of `C[C@]12C[C@H](O)[C@H]3[C@@H](CCC4=CC(=O)CC[C@@]43C)[C@@H]1CC[C@@H]2C(=O)CO` [corticosterone, reference compound] are under 6.00 and “I*”.
For `CC(=O)[C@H]1CC[C@H]2[C@@H]3CCC4=CC(=O)CC[C@]4(C)[C@H]3CC[C@]12C` [progesterone, reference compound], on GR complex, the pIC50 was under 6.00 and the IMAX entry was “I*”.

Values taken from EP0808325B1, “[…] […] SERIES FOR […] GABA RECEPTOR” (priority 1994, dated 1996).
